Data set [1] concerns Staphylococcus aureus MRSA ATCC 43300. Briefly: MIC assay, S. aureus MRSA ATCC 43300. The format is cell-based. The conditions noted are these: 24 h incubation, visual reading. Put shortly:
(§1)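 Overnight MHB cultures at 37° C were diluted 40-fold and grown 2-3 hrs to mid-log, then added at 5×10e5 CFU/mL to twofold compound dilutions (8 to 0.003 μg/ml). Plates were incubated 24 h at 37° C and MIC scored by eye.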

The test system of data set [2] is Streptococcus pneumoniae MDR ATCC 700677. Briefly: MIC assay, S. pneumoniae MDR ATCC 700677. Type of data set: cell-based. The conditions noted are these: 24 h incubation, visual reading. Put shortly:
as §1

Data set [3] relates to Enterococcus faecium MDR Van A ATCC 51559. Briefly: MIC assay, E. faecium MDR Van A ATCC 51559. The conditions noted are these: 24 h incubation, visual reading. Type of data set: cell-based. Put shortly: as §1
Data set [4] can be described thus: Stability of compounds in human plasma. The conditions noted are these: 50% human plasma/PBS pH 7.4, 37° C. On the procedure: Briefly test compounds (20 μM) were prepared from a 1 mM stock solution. The human plasma sample (200 μl) was diluted with 160 μl phosphate-buffer saline (PBS, pH 7.4) to a concentration of 50% v/v before use. Solutions were then vortexed and placed on a 37° C. shaker and shaken gently for 10 minutes. 40 μl of the test compounds were then added to the plasma sample and vortexed. For the reaction time t=0 hour, 50 μl of sample was immediately transferred into an eppendorf tube and quenched with 150 μl cold acetonitrile. The remaining plasma solution was incubated and shaken at 37° C. Other samples were collected at time points of 0, 1, 3, 6 and 24 hours whereby 50 μl aliquots were removed and quenched with 150 μl cold acetonitrile. All samples were placed in a 4° C. fridge for 10 minutes then centrifuged at 3000 rpm for 15 minutes. The supernatant (100 μl) was transferred to a glass vial insert for LCMS analysis. The percentage of test compounds remaining at the individual time points relative to sample at time point 0 hour were reported.
Plasma: Human Plasma (Pooled Normal Human Plasma Heparin Anticoagulant 50 mL (IPLA-2 N-04 lot IR09-1001, originally from Innovative Research and imported by BioCore).
All compounds in 100% water (40 μL in 400 μL assay volume equivalent […])
Compounds: 40 μL of the vancomycin derivative solution was added to 160 μL of PBS (pH 7.4) respectively in an Eppendorf tube. 600 μL of cold acetonitrile was added, the tube vortexed and transferred to a glass vial for LC-MS analysis.
Eucatropine: 200 μL of plasma and 190 μL of buffer were vortexed, shaken at 37° C. for 10 minutes. 10 μL of eucatropine solution was then added and the tube vortexed. A 50 μL aliquot was immediately transferred to an Eppendorf tube, 150 μL of cold acetonitrile added and the tube transferred to a 4° C. fridge for 10 minutes. The remaining plasma solution was then transferred to the incubator and shaken at 37° C. The tube was retrieved from the fridge, centrifuged at 3000 rpm for 15 min and 100 μL of supernatant transferred to a glass vial insert for LC-MS analysis. 50 μL aliquots were processed as above at 1, […], 3, 6 and 24 hours and 5 μL was injected into triple quad MS system for analysis. Vancomycin derivatives: 200 μL of plasma and 160 μL of buffer were vortexed and shaken at 37° C. for 10 minutes. 40 μL of compound was then added and the sample was processed as above.

For `CNC(CC(C)C)C(=O)NC1C(=O)NC(CC(N)=O)C(=O)NC2C(=O)NC3C(=O)NC(C(=O)NC(C(=O)NCCCCC(NC(=O)C(CCCCN)NC(=O)C(CCCCN)NC(=O)C(CCCCNC(=O)c4ccc(Oc5ccccc5)cc4)NC(=O)c4ccc(Oc5ccccc5)cc4)C(=O)O)c4cc(O)cc(O)c4-c4cc3ccc4O)C(O)c3ccc(c(Cl)c3)Oc3cc2cc(c3OC2OC(CO)C(O)C(O)C2OC2CC(C)(N)C(O)C(C)O2)Oc2ccc(cc2Cl)C1O` (centres unmarked) [MCC_000217, (4-PhO-PhCO)-K(4-PhO-PhCO)-KK-K(Vanc)-OH], the “Minimum Inhibitory Concentration (MIC) Staph. aureus ATCC43300” value in data set [1] was “xxxxx (xxxxx = <0.01)”. Further, the “Minimum Inhibitory Concentration (MIC) S. pneumoniae ATCC 700677” value in data set [2] is recorded as “xxxxx (xxxxx = <0.01)”. The “Minimum Inhibitory Concentration (MIC) E. faecium ATCC51559” value in data set [3] was “xx (xx = 1-4)”. The “% compound remaining after incubation in 50% human plasma” value (“% compound remaining after incubation” for short) was 100% in data set [4] (0 h (reference time point)), 107% in data set [4] (1 h), 103% in data set [4] (6 h) and 99% in data set [4] (24 h).
`CCCCCCCCCCCCCC(=O)N[C@H](CCCCN)C(=O)N[C@H](CCCCN)C(=O)NCC(=O)NCCNC(=O)[C@H]1NC(=O)[C@H]2NC(=O)[C@H](NC(=O)[C@@H]3NC(=O)[C@H](CC(N)=O)NC(=O)[C@H](NC(=O)[C@@H](CC(C)C)NC)[C@H](O)c4ccc(c(Cl)c4)Oc4cc3cc(c4O[C@@H]3O[C@H](CO)[C@@H](O)[C@H](O)[C@H]3O[C@H]3C[C@](C)(N)[C@H](O)[C@H](C)O3)Oc3ccc(cc3Cl)[C@H]2O)c2ccc(O)c(c2)-c2c(O)cc(O)cc21` [MCC_000227, nC13CO-kkG-NHC2NH-Vanc]: the “Minimum Inhibitory Concentration (MIC) Staph. aureus ATCC43300” value in data set [1] is reported as “xxxxx (xxxxx = <0.01)”. For the same molecule, the “Minimum Inhibitory Concentration (MIC) S. pneumoniae ATCC 700677” value in data set [2] is reported as “xxxxx (xxxxx = <0.01)”. Also, in data set [3], the “Minimum Inhibitory Concentration (MIC) E. faecium ATCC51559” value is “xx (xx = 1-4)”. Moreover, the “% compound remaining after incubation” value in data set [4] (0 h (reference time point)) stood at 100%; in data set [4] (1 h) it was 102%; in data set [4] (3 h), 102%; in data set [4] (6 h) it was 93%; in data set [4] (24 h) it was 94%.
For `CCCCCCCCCCC(=O)N[C@@H](CCCCN)C(=O)N[C@@H](CCCCN)C(=O)N[C@@H](CCCCN)C(=O)N[C@@H](CCCCNC(=O)[C@H]1NC(=O)[C@H]2NC(=O)[C@H](NC(=O)[C@@H]3NC(=O)[C@H](CC(N)=O)NC(=O)[C@H](NC(=O)[C@@H](CC(C)C)NC)[C@H](O)c4ccc(c(Cl)c4)Oc4cc3cc(c4O[C@@H]3O[C@H](CO)[C@@H](O)[C@H](O)[C@H]3O[C@H]3C[C@](C)(N)[C@H](O)[C@H](C)O3)Oc3ccc(cc3Cl)[C@H]2O)c2ccc(O)c(c2)-c2c(O)cc(O)cc21)C(=O)O` [MCC_000229, nC10CO-KKK-K(Vanc)-OH], the “Minimum Inhibitory Concentration (MIC) Staph. aureus ATCC43300” value in data set [1] was “xxxx (xxxx = 0.01-<0.1)”. For the same molecule, the “Minimum Inhibitory Concentration (MIC) S. pneumoniae ATCC 700677” value in data set [2] is “xxx (xxx = 0.1-<1)”. Further, the “Minimum Inhibitory Concentration (MIC) E. faecium ATCC51559” value in data set [3] was “xxxx (xxxx = 0.01-<0.1)”. Also, the “% compound remaining after incubation” value is on record as 100% in data set [4] (0 h (reference time point)); 87% in data set [4] (1 h); 87% in data set [4] (3 h); 83% in data set [4] (6 h); 93% in data set [4] (24 h).
`CCCCCCCCCCCCCC(=O)N[C@@H](CCCCN)C(=O)N[C@@H](CCCCN)C(=O)N[C@@H](CCCCN)C(=O)N[C@@H](CCCCNC(=O)[C@H]1NC(=O)[C@H]2NC(=O)[C@H](NC(=O)[C@@H]3NC(=O)[C@H](CC(N)=O)NC(=O)[C@H](NC(=O)[C@@H](CC(C)C)NC)[C@H](O)c4ccc(c(Cl)c4)Oc4cc3cc(c4O[C@@H]3O[C@H](CO)[C@@H](O)[C@H](O)[C@H]3O[C@H]3C[C@](C)(N)[C@H](O)[C@H](C)O3)Oc3ccc(cc3Cl)[C@H]2O)c2ccc(O)c(c2)-c2c(O)cc(O)cc21)C(=O)O` [MCC_000223, nC13CO-KKK-K(Vanc)-OH]: in data set [1], the “Minimum Inhibitory Concentration (MIC) Staph. aureus ATCC43300” value is “xxxxx (xxxxx = <0.01)”. For the same molecule, the “Minimum Inhibitory Concentration (MIC) S. pneumoniae ATCC 700677” value in data set [2] is on record as “xxxxx (xxxxx = <0.01)”. Further, the “Minimum Inhibitory Concentration (MIC) E. faecium ATCC51559” value in data set [3] is “xxx (xxx = 0.1-<1)”. Besides, the “% compound remaining after incubation” value was 100% in data set [4] (0 h (reference time point)); 174% in data set [4] (1 h); 164% in data set [4] (3 h); 170% in data set [4] (6 h); 139% in data set [4] (24 h).
Consider `CCCCCCCCCCC(=O)NCC(=O)N[C@@H](CO)C(=O)N[C@@H](CCCCN)C(=O)N[C@@H](CCCCN)C(=O)N[C@@H](CCCCN)C(=O)N[C@@H](CCCCNC(=O)[C@H]1NC(=O)[C@H]2NC(=O)[C@H](NC(=O)[C@@H]3NC(=O)[C@H](CC(N)=O)NC(=O)[C@H](NC(=O)[C@@H](CC(C)C)NC)[C@H](O)c4ccc(c(Cl)c4)Oc4cc3cc(c4O[C@@H]3O[C@H](CO)[C@@H](O)[C@H](O)[C@H]3O[C@H]3C[C@](C)(N)[C@H](O)[C@H](C)O3)Oc3ccc(cc3Cl)[C@H]2O)c2ccc(O)c(c2)-c2c(O)cc(O)cc21)C(=O)O` [MCC_000082, nC10CO-GSKKK-K(Vanc)-OH], for which the “% compound remaining after incubation” value in data set [4] (0 h (reference time point)) turned out to be 100%; in data set [4] (1 h) it was 136%; in data set [4] (3 h), 252%; in data set [4] (6 h) it was 241%; in data set [4] (24 h), 73%.
For the molecule `CCCCCCCCCCCCCC(=O)N[C@@H](CCCCN)C(=O)N[C@@H](CCCCN)C(=O)NCC(=O)NCCNC(=O)[C@H]1NC(=O)[C@H]2NC(=O)[C@H](NC(=O)[C@@H]3NC(=O)[C@H](CC(N)=O)NC(=O)[C@H](NC(=O)[C@@H](CC(C)C)NC)[C@H](O)c4ccc(c(Cl)c4)Oc4cc3cc(c4O[C@@H]3O[C@H](CO)[C@@H](O)[C@H](O)[C@H]3O[C@H]3C[C@](C)(N)[C@H](O)[C@H](C)O3)Oc3ccc(cc3Cl)[C@H]2O)c2ccc(O)c(c2)-c2c(O)cc(O)cc21` [MCC_000226, nC13CO-KKG-NHC2NH-Vanc], in data set [1], the “Minimum Inhibitory Concentration (MIC) Staph. aureus ATCC43300” value is “xxxxx (xxxxx = <0.01)”. Besides, the “Minimum Inhibitory Concentration (MIC) S. pneumoniae ATCC 700677” value in data set [2] is “xxxxx (xxxxx = <0.01)”. Also, in data set [3], the “Minimum Inhibitory Concentration (MIC) E. faecium ATCC51559” value is reported as “xxx (xxx = 0.1-<1)”. Also, the “% compound remaining after incubation” value in data set [4] (0 h (reference time point)) was found to be 100%; in data set [4] (1 h), 98%; in data set [4] (3 h), 137%; in data set [4] (6 h), 85%; in data set [4] (24 h), 87%.
